By Tm is commonly meant the temperature at which the thermal transition is half complete.

Several values for one entry are separate records, joined by “and”; a condition that tells them apart may be missing. Equal entries are not always repeated. A value given as a limit tells only on which side of the number the result lay.

The text below walks through data of patent publication US8562947B2, “Oxidized avidin with high residency time in the treated tissues” (Sigma-Tau Industrie Farmaceutiche Riunite S.p.A., priority 2007, dated 2013).

Data set [1] in a line: BiotinDOTA (ST2210) binding capacity by HABA assay. The settings on record: WTavidin value assumed as 100%.
A short description of data set [2]: Isothermal Titration Calorimetry of avidin/ST2210 interaction. Type of data set: binding. The settings on record: for KA / N (stoichiometry): ITC with ST2210; for association constants (KA): ITC with ST2210, text. In general terms: ITC needs no label: the signal is the heat of the interaction.
Data set [3] can be described thus: Thermal stability and conformational changes by circular dichroism spectroscopy (melting curves). To be noted: for thermal denaturation reversibility: heated without biotin; for p (slope of sigmoidal curve) / Tm: without biotin; for Tm: dichroic signal at 225 nm, 25-95° C. The data set is classed as physicochemical. How it is done:
Thermal stability and conformational changes were determined by circular dichroism spectroscopy before and after oxidation, with and without 4 equivalents of biotin. Melting curves were recorded by following the decrease of dichroic signal at 225 nm in the temperature range 25-95° C. The point of inflection and slope (p) of sigmoidal curves were calculated by means of Boltzman fitting model of the scientific graphing and data analysis Origin® 7.0 software and represent the point of transition through the denatured condition.
For each specific compound, the thermal stability corresponds to the temperature which matches the point of inflection of the corresponding curve registered in the temperature range 25-95° C.
(Circular dichroism is the unequal absorption of left and right circularly polarised light.)

Details of data set [4]: species or system Balb/c nu/nu mice. The settings on record: mouse, in vivo. How it is done:
The animal model of intraoperative avidination for radionuclide treatment IART® was set up by performing a surgical cut in one hind limb of a mouse, infiltrating radiolabelled avidin in the surgical margins and surrounding tissues and measuring radioactivity in the treated limb at different time points after administration. In a parallel group of mice, the radioactive avidin was infiltrated to the limb without surgery.
The amount of radioactivity, after 1 and 24 hours from administration was similar in the surgically treated and not surgically treated animals. Therefore, further studies were performed by infiltrating avidin without surgery. […] Labelled avidin was separated from free iodine by chromatography on a PD-10 column (Amersham Biosciences, Uppsala, Sweden) and oxidized as previously described in the Example 1 without any prior HABA protection.
Mice were sacrificed 1, 24 or 48 hours after ^111In-ST2210 administration and the treated and controlateral limbs, kidney, liver and blood samples were collected and counted in a gamma-counter (Camberra Packard, Schwadorf, Austria).

The nature of data set [5]: Long term tissue permanence of wild type and oxidized avidins. To be noted: referred to the 1 hour level; treated hind limb. Type of data set: in vivo, Balb/c nu/nu mice.
The conditions of data set [6]: mouse, in vivo.
The format of data set [7] is in vivo, Balb/c nu/nu mice. The settings on record: for distribution of 111In-ST2210 in non target organs: mouse, in vivo. Here is the method: After 48 hours from injection, the animals received intravenously (i.v.) 5 μg of ^111In-ST2210.
Groups of 5 animals were sacrificed at the indicated time points and radioactivity in the treated limb as well as in other non target organs measured by gamma counter (Camberra Packard, Schwadorf Austria).
One group of animals received a first intravenous dose of 5 μg of cold ST2210 24 hours prior to a second one of 5 μg ^111In-ST2210. The former occurred 24 hours after avidination. The animals were sacrificed 2 hours after i.v. injection of radiolabelled-ST2210 and radioactivity in the treated limb was measured by gamma counter as above.

In data set [8] the test system is tumoral lesions of the mammary gland of NeuT mice. Description: Therapeutic efficacy of pre-targeted brachytherapy in NeuT transgenic mice (whole mount analysis of mammary gland). Type of data set: in vivo, Balb-NeuT mice. The settings on record: compared to vehicle or WTavidin-treated breast; 90Y-ST2210 800 μCi. How it is done:
Two animals/group were sacrificed 3 hours after administration and both breasts IV and III excised and counted in a gamma counter as above. Non target organs were also collected weighted and counted. Data are expressed as the % ID/g of tissue. The effect of this pre-targeted brachytherapy on the tumoral lesions were evaluated by whole mount analysis of the mammary gland as described previously (De Giovanni C., et al., Cancer Research, 2004, 64, 4001).

A short description of data set [9]: Tissue localization in cryosections of avidinated muscle (immunofluorescence, haematoxylin/eosin). The settings on record: 24 hrs from injection. Type of data set: in vivo, Balb/c nude mice. Here is the method:
OXavidinHABA was evaluated for tissue localization in comparison to WTavidin in cryosections of avidinated tissues after intramuscular injection into one hind limb of Balb/c nude mice (Harlan, Udine Italy). The muscles were excised 24 hrs after treatment and serial cryosections were prepared from each sample. Each slide was stained with haematoxylin/eosin to evaluate the tissue morphology or incubated with a mouse anti avidin antibody (A5680, Sigma Aldrich, Italy) followed by anti mouse Alexa fluor 488 (Invitrogen, Milan Italy). Finally, slides were mounted with coverslips and observed under microscope.

A short description of data set [10]: Permanence in rabbit mammary tissue. Type of data set: in vivo, rabbits. The settings on record: for % ID/breast (+/− SD) at 24 h: rabbit mammary tissue; for amount found in the mammary tissue: rabbit, after 24 hours. Here is the method:
OXavidinHABA was evaluated for its permanence in the mammary tissue in comparison to WTavidin. […] The animals were sacrificed after 24 h from injection and tissue samples of the injected area of about 200 mg were collected and counted in a gamma counter as previously described. The data are the average (+/−SD) of 3 determinations.

Details of data set [11]: species or system Balb/c mice. To be noted: mouse, in vivo. An excerpt:
^125I-OXavidinHABA was saturated in vitro with ST2210, purified from unbound ST2210 by ultrafiltration and intramuscularly injected into one hind limb of Balb/c mice. The same protocol was followed with regard to WTavidin.

A short description of data set [12]: Tissue permanence of wild type, pegylated or oxidized avidins. Type of data set: in vivo, C57Bl/6 mice. To be noted: 24 hours after i.m. injection in hind limb. How it is done: Radioactivity in the treated limb was measured by gamma counter (Camberra Packard, Schwadorf Austria).
Chemically modified avidins were previously described by other groups with the intent of improving the avidin half-life in circulation (Caliceti P., et al., J. Control. Release, 2002, 83, 97; Salmaso S., et al., Int. J. Pharm., 2007, 340, 20). […] After 24 hours from injection, the animals were sacrificed and radioactivity in the treated limb was measured by gamma counter (Camberra Packard, Schwadorf Austria).

On to “OXavidin 1 mM NaIO4: avidin oxidized with 1 mM NaIO4 without HABA”, for which, in [1], the “BiotinDOTA binding % ± SD” value came out at 77.2 ± 0.9%.
Same read-out and setting: the value for “OXavidin 5 mM NaIO4: avidin oxidized with 5 mM NaIO4 without HABA” was 55.7 ± 2.2%; that for “OXavidin 10 mM NaIO4: avidin oxidized with 10 mM NaIO4 without HABA” was 50.9% and 50.9 ± 2.4%.
Consider “OXavidin 20 mM NaIO4: avidin oxidized with 20 mM NaIO4 without HABA”, for which, in data set [2], the KA was determined as 645000 ± 56900 M⁻¹ and the “N (stoichiometry)” value was 1.2 ± 0.012. For the same substance, in [1], the “BiotinDOTA binding % ± SD” value was 49.1% and 49.1 ± 2.1%.
Turning to “OXavidin 40 mM NaIO4: avidin oxidized with 40 mM NaIO4 without HABA”, the “BiotinDOTA binding % ± SD” value in data set [1] is given as 44.5 ± 0.9%.
On to “OXavidin: avidin oxidized with sodium periodate without prior HABA protection; NaIO4 concentration not stated at these places”, for which, in data set [2], the stoichiometry of interaction is 1.2 molecules of ST2210 per molecule and the KA came to 645000 M⁻¹. In addition, in data set [3], the thermal denaturation reversibility result was “irreversible”; the “p (slope of sigmoidal curve)” value is 8.9 and 8.9 ± 0.1; the Tm is 74.3 °C and 74.3 ± 0.1 °C. Further, in data set [4], the “amount in the treated limb compared to native avidin” value is on record as “more than double” and the “distribution in the non target organs (blood, kidney, liver)” value is “lower distribution”. The tissue half life result in data set [5] was “about 2 weeks”.
With “OXavidinHABA 1 mM NaIO4: avidin oxidized with 1 mM NaIO4 in presence of 1 mM HABA”, in data set [2], the KA was found to be 4.58e+06 ± 249000 M⁻¹ and the “N (stoichiometry)” value is recorded as 2.5 ± 0.008. In [1], the “BiotinDOTA binding % ± SD” value was found to be 99.0 ± 0.2%.
In the case of “OXavidinHABA 5 mM NaIO4: avidin oxidized with 5 mM NaIO4 in presence of 1 mM HABA”, in data set [2], the KA amounted to 5.42e+06 ± 590000 M⁻¹ and the “N (stoichiometry)” value is recorded as 1.9 ± 0.012. Moreover, in [1], the “BiotinDOTA binding % ± SD” value is reported as 95.0 ± 1.7%.
As to “OXavidinHABA 10 mM NaIO4: avidin oxidized with 10 mM NaIO4 in presence of 1 mM HABA”, in [2], the KA was determined as 3.34e+06 ± 212000 M⁻¹ and the “N (stoichiometry)” value came to 1.7 ± 0.008. Moreover, the “BiotinDOTA binding % ± SD” value in [1] was determined as 86.3%. For the same substance, in data set [1] (listed as OXavidinHABA 10 mM NaIO4 + 1 mM HABA), the “BiotinDOTA binding % ± SD” value amounted to 86.3 ± 1.6 %.
Regarding “OXavidinHABA 20 mM NaIO4: avidin oxidized with 20 mM NaIO4 in presence of 1 mM HABA”, in [2], the KA amounted to 2.5e+06 ± 132000 M⁻¹ and the “N (stoichiometry)” value stood at 1.5 ± 0.007. Also, the “BiotinDOTA binding % ± SD” value in [1] amounted to 81.4%. Moreover, in data set [1] (listed as OXavidinHABA 20 mM NaIO4 + 1 mM HABA), the “BiotinDOTA binding % ± SD” value stood at 81.4 ± 1.0 %.
For the substance “OXavidinHABA 40 mM NaIO4 + 1 mM HABA: avidin oxidized with 40 mM NaIO4 in presence of 1 mM HABA”, the “BiotinDOTA binding % ± SD” value in data set [1] is given as 73.0 ± 0.6%.
As to “OXavidinHABA: HABA-saturated avidin oxidized with sodium periodate; NaIO4 concentration not stated at these places”, in [6], the “residence in the brain” value is listed as “about 12.65±6.59 % ID/100 mg of tissue”. Also, the “specific captation of 111In-ST2210 in treated tissue compared with WTavidin” value in [7] (2 hours from i.v. injection, 48 hours after avidination) was “much higher”. Moreover, the “captation of second dose of 111In-ST2210 in treated limb” value in data set [7] (after a first dose of cold ST2210 24 hours before) is “comparable to that obtained with the single dose”. In addition, the “distribution of 111In-ST2210 in non target organs” value in [7] is reported as “similar”. In addition, in data set [2], the stoichiometry of interaction was 1.7 molecules of ST2210 per molecule and the “association constants (KA)” value was determined as 2.5e+06 M⁻¹. Moreover, in [8], the “effect on cancer lesions of the mammary gland” value was “significant reduction of cancer lesions”. In data set [9], the “haematoxylin/eosin staining of muscle” value is given as “no histological abnormalities”. Besides, in data set [3], the thermal denaturation reversibility entry was “irreversible”; the “p (slope of sigmoidal curve)” value was 11.2 and 11.2 ± 0.4; the Tm is 78.1 °C and 78.1 ± 0.3 °C. In data set [10], the “% ID/breast (+/− SD) at 24 h” value is 65.8 (0.08) % ID/breast and the “amount found in the mammary tissue” value is listed as 65.8 % ID. Besides, in data set [11], the “amount in the treated limb” value came to 17 % ID/100 mg. Besides, in data set [5], the tissue half life result was “about 2 weeks”. Besides, in data set [12], the “tissue permanence compared to WTavidin” value is “increase of tissue permanence”.
On to “PEGavidin: PEG-conjugated avidin prepared according to Caliceti [reference compound]”, for which the “tissue permanence compared to WTavidin” value in data set [12] is “did not affect the tissue permanence”.
Regarding “WTavidin: wild type avidin, glycoprotein of about 68 kDa present in egg white, high affinity for biotin [reference compound]”, the “distribution of 111In-ST2210 in non target organs” value in data set [7] is given as “similar”. In [2], the stoichiometry of interaction is 3.0 molecules of ST2210 per molecule, the KA came to 3.45e+06 ± 307000 M⁻¹, the “N (stoichiometry)” value was found to be 3.0 ± 0.016 and the “association constants (KA)” value is 3.45e+06 M⁻¹. Moreover, in [1], the “BiotinDOTA binding % ± SD” value was 100^@ %. Besides, the “haematoxylin/eosin staining of muscle” value in data set [9] is “no histological abnormalities”. Further, in [3], the “p (slope of sigmoidal curve)” value was determined as 14.7 and the Tm stood at 79.0 °C. For the same substance, in [3] (listed as Avidin), the Tm was 79.0 ± 0.1 °C and the “p (slope of sigmoidal curve)” value came to 14.7 ± 0.3. Also, in data set [3] (listed as avidin), the Tm was 79.0 °C and the “p (slope of sigmoidal curve)” value was 14.7. For the same substance, in data set [10], the “% ID/breast (+/− SD) at 24 h” value is on record as 8.5 (1.13) % ID/breast and the “amount found in the mammary tissue” value was determined as 8.5 % ID. In addition, the “distribution in the non target organs (blood, kidney, liver)” value in data set [4] is listed as “higher distribution”. Further, the “amount in the treated limb” value in [11] was below 0.5 % ID/100 mg. Further, the tissue half life in data set [5] turned out to be 2 h.
